Measured values reported in paper PMC6710338, “Turning a Collagenesis-Inducing Peptide Into a Potent Antibacterial and Antibiofilm Agent Against Multidrug-Resistant Gram-Negative Bacteria” (Frontiers in Microbiology, 2019).
≈ marks a conversion by molar mass, not a printed value. Where two headings read alike, the source gives them in different places. Peptide text beside a SMILES is read from it.

Columns and labels:
[1] = system: MDR clinical isolates of K. pneumoniae (KP004, KP007, KP010); type: cell-based, Klebsiella pneumoniae; conditions: for MIC: MHB2
Experimental: (§1) The minimum inhibitory concentration (MIC) of synthetic peptides was determined using the broth microdilution method in cation-adjusted Mueller-Hinton broth (MHB2 – Sigma-Aldrich, St. Louis, MO, United States), according to the recommendations of the Clinical and Laboratory Standards Institute ([CLSI, 2012]), against four reference strains, namely, P. aeruginosa ATCC 27853, E. coli ATCC 25922, S. aureus ATCC 25923 and Enterococcus faecalis ATCC 29212. MIC values of peptide 3.1-PP4 were also determined against MDR clinical isolates of P. aeruginosa (PA002, PA004, Pa3, Pa4), E. coli (Ec1, Ec2, EC001, EC002, EC003) and K. pneumoniae (KP004, KP007, KP010). The peptides were tested in the concentration range of 1–1024 μg/mL. The minimum bactericidal concentration (MBC) was determined as previously reported ([Bessa et al., 2018]).
In view of the above results, peptide conjugate 3.1-PP4 was selected for further investigation of its activity against MDR isolates of three Gram-negative bacterial species, namely, P. aeruginosa (four isolates), E. coli (five isolates), and K. pneumoniae (four isolates), whose antimicrobial resistance patterns are provided in the Supplementary Table S1. MDR isolates of K. pneumoniae were included in this analysis given (i) the high prevalence of K. pneumoniae in HAI ([Zheng et al., 2017]), (ii) that K. pneumoniae isolates used are carbanepem-resistant strains of an Enterobacteriaceae species, meaning that they are class 1 priority pathogens for the research and development of new antibiotics according to the WHO ([WHO, 2017]), and (iii) K. pneumoniae bacteria are usually better biofilm producers than the other Enterobacteriaceae species used, E. coli ([Reisner et al., 2006]). MIC values obtained are shown in Table 3, and confirm peptide’s 3.1-PP4 potent action against Gram-negative bacteria, including MDR isolates, with a selectivity index (SI), i.e., ratio of IC50 values for mammalian vs. bacterial cells, ranging from ca. 9–69. In fact, for P. aeruginosa and E. coli, MIC against MDR isolates were in the same range, or below, of those previously found for ATCC reference strains (Table 2). For K. pneumoniae, MIC values ranged between 1 and 4 μM, which is remarkable.

[2] = system: preformed biofilms of MDR K. pneumoniae isolates; experiment: Effect on 24 h preformed biofilms (OD600 of planktonic phase); type: cell-based, Klebsiella pneumoniae; conditions: 20 × MIC, vs non-treated biofilm
Experimental: The efficacy of peptide 3.1-PP4 on 24 h preformed biofilms of PA002, PA004, KP004, KP007, and KP010 was also evaluated ([Gomes et al., 2014]). Briefly, biofilms were grown in TSB from a starting inoculum of 1 × 10^6 CFU/mL in 96-well microtiter plates. […] The optical density at 600 nm (OD600) was measured at time 0 and after incubation for 24 h at 37°C. The reduction in the biofilm proliferation was calculated in comparison to the respective non-treated biofilms. Two independent experiments were performed in triplicate.
In the case of control biofilms, the second 24 h growth period occurred in the absence of the peptide. Based on the apparent higher efficiency of peptide 3.1-PP4 to inhibit the formation of K. pneumoniae than P. aeruginosa biofilms, only two MDR isolates of the latter were included in this assay, whereas three MDR K. pneumoniae were tested. Optical density of the planktonic phase, as a measure of biofilm proliferation, was reduced in all peptide-treated biofilms, ranging from 3 to 21% reduction on P. aeruginosa isolates, and from 34 to 56% reduction on K. pneumoniae isolates (Table 4).

P. aeruginosa ATCC 27853 = experiment: MIC, broth microdilution (CLSI), ATCC reference strain; type: cell-based, Pseudomonas aeruginosa
Experimental: as §1, with “2018]). According to CLSI guidelines for antimicrobial susceptibility testing, MIC values were determined for all peptides against ATCC reference strains of two Gram-positive (S. aureus ATCC 25923 and E. faecalis ATCC 29212), and two Gram-negative (P. aeruginosa ATCC 27853 and E. coli ATCC 25922) bacterial species, and are shown in Table 2.” for “2018]).”

[3] = system: MDR P. aeruginosa isolates (PA002, PA004, Pa3); experiment: Inhibition of biofilm formation, crystal violet assay; type: cell-based, Pseudomonas aeruginosa; conditions: in TSB
Experimental: The ability of peptide 3.1-PP4 to inhibit the biofilm formation by three P. aeruginosa isolates (PA002, PA004, Pa3) and by three K. pneumoniae isolates (KP004, KP007 and KP010) was assessed at concentrations equal to the MIC, 1/2 × MIC and 1/4 × MIC in tryptic soy broth – (TSB – Liofilchem s.r.l., Italy) using the crystal violet assay as reported by [Gomes et al. (2014)]. Two independent experiments were performed in triplicate.
Some of the MDR isolates of P. aeruginosa and K. pneumoniae were randomly selected to form biofilms in the absence (controls) and presence (at MIC, 1/2 × MIC and 1/4 × MIC) of the peptide 3.1-PP4. In this assay, the test compounds were used at sub-inhibitory concentrations, since if they had been present at the MIC or higher concentrations, bacteria would be killed before starting to produce the biofilms.
FIGURE 1 Biofilm biomass quantitation of biofilms formed in the presence of peptide 3.1-PP4. Biofilms of three MDR P. aeruginosa (PA002, Pa3, and PA004) and of three MDR K. pneumoniae (KP004, KP007, and KP010) were formed in the presence of the peptide at three different concentrations, MIC, 1/2 × MIC, and 1/4 × MIC. Control biofilms were grown in absence of the peptide. Two independent experiments were performed in triplicate. Error bars represent SD. […]

CC(C)C[C@H](NC(=O)[C@H](Cc1c[nH]c2ccccc12)NC(=O)[C@H](CCCCN)NC(=O)[C@H](CC(C)C)NC(=O)[C@H](CC(C)C)NC(=O)[C@H](CCCCN)NC(=O)[C@@H](N)CCCCN)C(=O)N[C@@H](CC(C)C)C(=O)N[C@@H](CCCCN)C(=O)N[C@@H](CC(C)C)C(=O)N[C@@H](CC(C)C)C(=O)N[C@@H](CCCCN)C(=O)N[C@H](C(=O)N[C@H](C(=O)N[C@@H](CCCCN)C(=O)N[C@@H](CO)C(N)=O)[C@@H](C)O)[C@@H](C)O [Peptide 3.1-PP4] (H-KKLLKWLLKLLKTTKS-NH2; N-terminus assumed)
MIC ([1]; MDR K. pneumoniae isolate KP004): 4 µg/mL (≈ 2.06 µM)
MIC ([1]; MDR K. pneumoniae isolate KP007): 8 µg/mL (≈ 4.12 µM)
MIC ([1]; MDR K. pneumoniae isolate KP010): 2 µg/mL (≈ 1.03 µM)
MIC values for K. pneumoniae ([1]; MDR clinical isolates of (KP004, KP007, KP010)): 1 to 4 µM
% reduction in biofilm proliferation upon treatment ([2]; isolate KP004, 24 h preformed biofilm): 56%
% reduction in biofilm proliferation upon treatment ([2]; isolate KP007, 24 h preformed biofilm): 34%
% reduction in biofilm proliferation upon treatment ([2]; isolate KP010, 24 h preformed biofilm): 49%
MIC (P. aeruginosa ATCC 27853; ATCC 27853): 2.1 µM
MIC (P. aeruginosa ATCC 27853; P. aeruginosa ATCC 27853, broth microdilution in MHB2, CLSI, range tested 1–1024 μg/mL): 4 µg/mL
MIC (P. aeruginosa ATCC 27853; P. aeruginosa ATCC 27853, broth microdilution in MHB2, CLSI, value in parentheses): 2 µM
biofilm formation (crystal violet absorbance at 595 nm) ([3]; peptide at 1/2 and 1/4 of the MIC, three P. aeruginosa isolates): does not significantly inhibit biofilm formation
biofilm formation (crystal violet absorbance at 595 nm) ([3]; peptide at MIC, exception isolate PA002, two experiments in triplicate): no biofilm was actually produced
